In ChEMBL document CHEMBL1828556, “Synthesis, hypnotic properties and molecular modeling studies of 1,2,7,9-tetraaza-spiro[4.5]dec-2-ene-6,8,10-triones” (Eur J Med Chem, 2011):

Key:
Mus musculus [1] = assay: Potentiation of sodium thiopental-induced hypnotic/sedative activity in Albino mouse assessed as time elapsed between injection of sodium thiopental and loss of righting reflex at 25 mg/kg, ip administered 1 hr prior challenge (Rvb =2.66 +/- 0.23 mins); assay type: functional; conditions: route intraperitoneal
Mus musculus [2] = assay: Potentiation of sodium thiopental-induced hypnotic/sedative activity in Albino mouse assessed as sleeping time at 25 mg/kg, ip administered 1 hr prior challenge relative to control; assay type: functional; conditions: route intraperitoneal
Mus musculus [3] = assay: Toxicity in Albino mouse assessed as mortality at 500 mg/kg, ip after 24 hrs; assay type: organism-based; design: dose 500 mg/kg, route intraperitoneal; conditions: in vivo
Mus musculus [4] = assay: Toxicity in Albino mouse assessed as toxic symptoms at 750 mg/kg, ip after 24 hrs; assay type: organism-based; design: dose 750 mg/kg, route intraperitoneal; conditions: in vivo
Mus musculus [5] = assay: Toxicity in Albino mouse assessed as toxic symptoms at 500 mg/kg, ip after 24 hrs; assay type: organism-based; design: dose 500 mg/kg, route intraperitoneal; conditions: in vivo
Mus musculus [6] = assay: Toxicity in Albino mouse assessed as toxic symptoms at 250 mg/kg, ip after 24 hrs; assay type: organism-based; design: dose 250 mg/kg, route intraperitoneal; conditions: in vivo
Mus musculus [7] = assay: Toxicity in Albino mouse assessed as mortality at 750 mg/kg, ip after 24 hrs; assay type: organism-based; design: dose 750 mg/kg, route intraperitoneal; conditions: in vivo
Mus musculus [8] = assay: Toxicity in Albino mouse assessed as mortality at 250 mg/kg, ip after 24 hrs; assay type: organism-based; design: dose 250 mg/kg, route intraperitoneal; conditions: in vivo

Structure (SMILES)	Time (Mus musculus [1]) [min]	Activity (Mus musculus [2]) [%]	Activity (Mus musculus [3])	Activity (Mus musculus [4])	Activity (Mus musculus [5])	Activity (Mus musculus [6])	Activity (Mus musculus [7])	Activity (Mus musculus [8])
CN1C(=O)N(C)C(=O)C2(C1=O)C(c1ccccc1)C(c1ccccc1)=NN2c1ccccc1 (stereo not drawn)	3	1.3						
CN1C(=O)N(C)C(=O)C2(C1=O)C(c1ccc(Cl)cc1)C(c1ccccc1)=NN2c1cccc(Cl)c1 (stereo not drawn)	2.3	340.9	Non-toxic	Non-toxic	Non-toxic	Non-toxic	Non-toxic	Non-toxic
Cc1ccc(C2C(c3ccccc3)=NN(c3ccccc3)C23C(=O)N(C)C(=O)N(C)C3=O)o1 (stereo not drawn)	2.66	904	Non-toxic	Non-toxic	Non-toxic	Non-toxic	Non-toxic	Non-toxic
CN1C(=O)N(C)C(=O)C2(C1=O)C(c1cccs1)C(c1ccccc1)=NN2c1ccccc1 (stereo not drawn)	1.79	-25.8						
CN1C(=O)N(C)C(=O)C2(C1=O)C(c1ccccc1)C(c1ccccc1)=NN2c1cccc(Cl)c1 (stereo not drawn)	1.85	192						
CN1C(=O)N(C)C(=O)C2(C1=O)C(c1ccc(N(C)C)cc1)C(c1ccccc1)=NN2c1ccccc1 (stereo not drawn)	2.91	299.4	Non-toxic	Non-toxic	Non-toxic	Non-toxic	Non-toxic	Non-toxic
COc1ccc(C2C(c3ccccc3)=NN(c3ccccc3)C23C(=O)N(C)C(=O)N(C)C3=O)cc1 (stereo not drawn)	5.25	-20.3						
CN1C(=O)N(C)C(=O)C2(C1=O)C(c1ccc(Cl)cc1)C(c1ccccc1)=NN2c1ccccc1 (stereo not drawn)	3.47	20						
CN1C(=O)N(C)C(=O)C2(C1=O)C(c1ccc(F)cc1)C(c1ccccc1)=NN2c1ccccc1 (stereo not drawn)	2	358.6	Non-toxic	Non-toxic	Non-toxic	Non-toxic	Non-toxic	Non-toxic
CN1C(=O)N(C)C(=O)C2(C1=O)C(c1ccc(Cl)cc1Cl)C(c1ccccc1)=NN2c1ccccc1 (stereo not drawn)	2.12	501.2	Non-toxic	Non-toxic	Non-toxic	Non-toxic	Non-toxic	Non-toxic
Cc1ccc(C2C(c3ccccc3)=NN(c3ccccc3)C23C(=O)N(C)C(=O)N(C)C3=O)cc1 (stereo not drawn)	2.92	311.3	Non-toxic	Non-toxic	Non-toxic	Non-toxic	Non-toxic	Non-toxic
